In patent EP0267319A1, “Anti-spasmodic agents having a ring in the main chain” (United Pharmaceuticals, Inc., priority 1986, dated 1988):
Structures can show the parent of a compound that is named as a salt.

Tested on: rabbit urinary bladder strip
Assay: relaxant effect on bethanechol-contracted rabbit urinary bladder strips (organ bath)
Assay type: cell-based
Settings: for Decrease in force of contraction of rabbit bladder strip / Increase in length of rabbit bladder strip: strips pre-contracted with bethanechol 150 µM; for Increase in length of rabbit bladder strip: cumulative dosing, read 5 minutes after addition; for % background relaxation: term not explained
Method: The pharmological actions of one anti-spasmodic compound was studied in a rabbit urinary bladder strip preparation. In general, longitudinal strips were prepared from the base of freshly isolated rabbit bladders and were then suspended under near-physiological conditions in tissue baths. The strips were attached to force transducers and both contractile and relaxant activity was measured. To measure the relaxant effects on the anti-spasmodic compounds on previously-contracted bladder strips, the strips were initially exposed to the muscarinic receptor agonist bethanechol and allowed to reach a steady level of contractile activity for 20 minutes. At this point cumulative dose-responses to the compound was recorded. The rabbit abdomens were opened through a vertical midline incision. The bladder and urethra were dissected free of all surrounding tissues, removed and placed in aerated (95% O₂:5% CO₂) Kreb's-bicarbonate buffer (pH:7.4) of the following composition ([…]):KCl 4.6, CaCl₂·2H₂O 2.5, KH₂PO₄ 1.2, MgSO₄·7H₂O 1.2, NaCl 118.2, NaHCO₃ 24.8, and glucose 10.0. Longitudinal muscle strips were prepared from the bladder base (approximately 6 mm x 4 mm) and suspended in an organ bath containing Kreb's buffer (37°C) which was continuously aerated with O₂:CO₂ (95%:5%). Tissues were allowed to equilibrate to a tension of 2 gm for sixty minutes during which time buffer was replaced at 20 minute intervals. The contractile and relaxant responses of the muscle strips were measured isometrically with a Statham UC3 force-displacement transducer and recorded on an Electronics for Medicine DR8 oscillographic recorder. Bethanechol was employed as the representative cholinergic agonist and, following equilibration, was added to the baths for a final concentration of 150 µM. The tissues were allowed 20 minutes to achieve a maintained level of contraction in response to bethanechol and, at this point, cumulative dose-response measurements for one anti-spasmodic compound were started at concentrations ranging from 10⁻⁸ M to 10⁻⁴M. Solutions were added in volumes up to 100 µl and were prepared fresh each day by dissolving them in distilled:deionzed water. Responses were measured 5 minutes following any particular cumulative addition and were expressed as a percentage of maximal relaxation (e.g. maximal relaxation is the baseline or pre-bethanechol level of muscle tone).
Dose responses, measured from the standard bethanechol-contracted rabbit bladder strips, at various concentrations of 4-t-butyl-benzoyl-thio-S-(2-diethylaminoethyl)-ester·HCl [drawing 12] are presented in Table I: […]

Structure (SMILES): CCN(CC)CCSC(=O)c1ccc(C(C)(C)C)cc1 [4-t-butyl-benzoyl-thio-S-(2-diethylaminoethyl)-ester·HCl]
- Decrease in force of contraction of rabbit bladder strip (10^-4 moles/liter): 0.67 gm
- Increase in length of rabbit bladder strip (10^-4 moles/liter): 3.2 cm
- % background relaxation (10^-4 moles/liter): 31.8%
- Decrease in force of contraction of rabbit bladder strip (10^-5 moles/liter): 0.27 gm
- Increase in length of rabbit bladder strip (10^-5 moles/liter): 1.3 cm
- % background relaxation (10^-5 moles/liter): 9.5%
- Decrease in force of contraction of rabbit bladder strip (10^-6 moles/liter): 0.08 gm
- Increase in length of rabbit bladder strip (10^-6 moles/liter): 0.4 cm
- % background relaxation (10^-6 moles/liter): 0.0%
- Decrease in force of contraction of rabbit bladder strip (10^-7 moles/liter): 0.04 gm
- Increase in length of rabbit bladder strip (10^-7 moles/liter): 0.2 cm
- % background relaxation (10^-7 moles/liter): 0.0%
- Decrease in force of contraction of rabbit bladder strip (10^-8 moles/liter): 0.02 gm
- Increase in length of rabbit bladder strip (10^-8 moles/liter): 0.1 cm
- % background relaxation (10^-8 moles/liter): 0.0%
- inhibition at 100 µM (Oryctolagus cuniculus, 5 min, 10^-4 moles/liter, maximal relaxation = pre-bethanechol level of muscle tone, read-out: % of maximum relaxation): 40.5%
- inhibition at 10 µM (Oryctolagus cuniculus, 5 min, 10^-5 moles/liter, maximal relaxation = pre-bethanechol level of muscle tone, read-out: % of maximum relaxation): 16.5%
- inhibition at 1 µM (Oryctolagus cuniculus, 5 min, 10^-6 moles/liter, maximal relaxation = pre-bethanechol level of muscle tone, read-out: % of maximum relaxation): 5.2%
- inhibition at 0.1 µM (Oryctolagus cuniculus, 5 min, 10^-7 moles/liter, maximal relaxation = pre-bethanechol level of muscle tone, read-out: % of maximum relaxation): 2.6%
- inhibition at 0.01 µM (Oryctolagus cuniculus, 5 min, 10^-8 moles/liter, maximal relaxation = pre-bethanechol level of muscle tone, read-out: % of maximum relaxation): 1.3%
